Assay results from patent US12686676B2, “Compound, endothelin-A receptor antagonist, and pharmaceutical composition” (Alchemedicine, Inc., priority 2021, dated 2026).

Tests used:
[1] = Metabolic stability in mouse liver microsome; assay type: in vitro ADME; conditions: after 30 minutes with NADPH; also: tested at 0.99 µM
Method: 971.5 μL of the potassium phosphate buffer solution and 27.5 μL of the human liver microsome were placed in a propylene tube and suspended. 1 μL of the test compound was added thereto, and a 180 μL aliquot of this mixture was transferred to a fresh tube. The mixture was preincubated at 37° C. for 5 minutes. Then, 20 μL of the NADPH solution (for an incubation time of 30 minutes) or 20 μL of the potassium phosphate buffer solution (for an incubation time of 0 minutes) was added thereto. After incubation, the reaction was terminated by the addition of 200 μL of the quenching solution. Subsequently, the tube was centrifuged at 3220×g for 20 minutes, and the concentration of an unchanged form of the test compound in […] of a supernatant was measured by LC-MS/MS. On the basis of the obtained peak area of the unchanged form, the residual rate (%) of the unchanged form was calculated using the rate of 0 minutes of incubation time as 100%.
The metabolic stability in a mouse liver microsome was evaluated by the same method as above except that the mouse liver microsome was used instead of the human liver microsome.

CYP2C9 = target: T1, CYP2C9 (Homo sapiens, UniProt P11712); assay: CYP2C9 inhibitory effect (liver microsome fraction, diclofenac substrate); assay type: in vitro ADME; conditions: liver microsome fraction 0.5 mg/mL, diclofenac 2.5 μM
T1 construct: A frozen liver microsome fraction was thawed on ice; from tissue; host or cells: liver microsome fraction
T1 sequence (P11712 whole entry): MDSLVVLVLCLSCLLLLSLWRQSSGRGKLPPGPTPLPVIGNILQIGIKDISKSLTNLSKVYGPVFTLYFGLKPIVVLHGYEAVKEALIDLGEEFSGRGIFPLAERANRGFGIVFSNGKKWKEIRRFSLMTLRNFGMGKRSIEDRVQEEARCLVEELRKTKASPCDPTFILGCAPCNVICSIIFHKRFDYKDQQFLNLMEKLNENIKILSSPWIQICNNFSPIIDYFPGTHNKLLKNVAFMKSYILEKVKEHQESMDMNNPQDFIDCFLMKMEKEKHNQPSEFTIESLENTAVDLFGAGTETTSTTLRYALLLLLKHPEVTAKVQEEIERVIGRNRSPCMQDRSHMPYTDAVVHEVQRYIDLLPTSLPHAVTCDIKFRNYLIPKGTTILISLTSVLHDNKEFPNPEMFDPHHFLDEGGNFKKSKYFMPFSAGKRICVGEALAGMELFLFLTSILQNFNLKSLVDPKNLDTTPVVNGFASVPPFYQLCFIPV
Method: The inhibitory effect on CYP2C9 was evaluated by the following method. • (1) A frozen liver microsome fraction was thawed on ice and diluted with a potassium phosphate buffer (PPB) to a final concentration of 0.5 mg/mL. • (2) A substrate for evaluation (diclofenac: D6899 from Sigma-Aldrich Co. LLC) was added thereto such that its final concentration was 2.5 μM. • (3) The mixture was slowly mixed and incubated at 37±1° C. for 5 minutes to prepare a reaction solution. • (4) 801 μL of the reaction solution was dispensed to each tube, and an evaluation compound serially diluted with 0.9 μL of DMSO was added thereto such that its final concentration was 9.1 to 20000 nM (⅓ dilutions with 8 concentrations). In this context, 0.9 μL of DMSO was added to a negative control group, and 0.9 μL of sulfaphenazole (S0758 from Sigma-Aldrich Co. LLC) adjusted to a final concentration of 1 μM with DMSO was added to a positive control group. • (5) After mixing, a 270 μL aliquot was transferred to each of two fresh tubes and incubated in a shaking water bath at 37±1° C. for 5 minutes. • (6) Reaction was started by the addition of 30 μL of 10 mM NADPH, and the tubes were incubated at 37° C.±1° C. for 10 minutes. • (7) The tubes were taken out of the shaking water bath, and the reaction was terminated by the addition of 300 μL of a reaction stop solution. After mixing, the tubes were centrifuged at 1021×g at 4° C. for 20 minutes. • (8) The amount of the substrate for evaluation metabolized was determined by LC-MS/MS to calculate the rate of inhibition at each concentration of the evaluation compound. • (9) IC50 values were calculated using GraphPad Prism5. A sample having an IC50 value of 1 μM or lower was given “++”; a sample having an IC50 value in the range of higher than 1 μM and 10 μM or lower was given “+”; and a sample having an IC50 value of higher than 10 μM was given “−”.

[2] = target: T2, human endothelin B receptor (Homo sapiens, UniProt P24530); assay: Endothelin B receptor inhibitory effect (aequorin light emission, endothelin at EC80); assay type: cell-based; conditions: for IC50: CHO-K1-mt aequorin cells expressing human endothelin B receptor, endothelin at EC80, read-out: ETB receptor inhibitory effect
T2 construct: expressed in transfected cells; host or cells: CHO-K1-mt aequorin cells
T2 sequence (P24530 27-442): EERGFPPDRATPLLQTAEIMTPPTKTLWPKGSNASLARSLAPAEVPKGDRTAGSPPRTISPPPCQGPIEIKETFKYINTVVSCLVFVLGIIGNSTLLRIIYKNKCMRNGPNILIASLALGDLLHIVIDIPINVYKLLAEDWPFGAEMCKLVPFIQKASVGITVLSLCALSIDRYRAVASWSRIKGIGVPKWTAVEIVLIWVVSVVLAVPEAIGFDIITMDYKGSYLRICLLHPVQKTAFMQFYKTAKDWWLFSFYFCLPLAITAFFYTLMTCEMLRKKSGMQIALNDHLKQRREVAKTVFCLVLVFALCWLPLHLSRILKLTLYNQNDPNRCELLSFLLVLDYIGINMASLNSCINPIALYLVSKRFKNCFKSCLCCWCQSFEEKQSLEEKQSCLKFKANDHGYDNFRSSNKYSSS
Method: The inhibitory effect on an endothelin B receptor was studied by the following method.
CHO-K1-mt aequorin cells forced to express a human endothelin B receptor (Accession Number NP_000106.1) were cultured in an antibiotic-free medium for 18 hours, then treated with PBS-EDTA (5 mM EDTA), centrifuged (2 min, 405×g, room temperature), and then suspended in an assay buffer (DMEM/HAM's F12 with HEPES+0.1% BSA protease free).
1×10^6 cells/mL of the cells were incubated at room temperature for 4 hours in the presence of coelenterazine h (Molecular Probes, Inc.) (final concentration: 5 µM). Agonistic reaction based on endothelin was confirmed to determine an endothelin concentration corresponding to EC80.
Subsequently, 50 µL (10000 cells/well) of the cell suspension treated with coelenterazine h and 50 µL of an assay buffer containing a test substance (final concentration: 0.5% in DMSO) were added to each well of a 96-well plate. 15 minutes later, endothelin was added such that its final concentration was an EC80 concentration. Receptor activity was measured as the quantity of light emission in FDSS6000 (Hamamatsu Photonics K.K.).

[3] = tested on: BigET-1-induced blood pressure; assay: BigET-1-induced blood pressure evaluation test; assay type: in vivo, Wistar rat; conditions: 30 mg/kg into the duodenum 1 hour before BigET-1 (20 μg/kg); Mean ± SD, N = 6
Method: Each 8- to 20-week-old male Wistar rat was subjected to tracheal catheter treatment for airway management, carotid catheter treatment for blood pressure measurement, femoral venous catheter treatment for BigET-1 administration, and duodenal catheter treatment for test substance administration under analgetic treatment and urethane anesthesia. After confirmation that the blood pressure and the heart rate became stable, a vehicle (0.5% methylcellulose 400 solution) or 30 mg/kg (5 ml/kg) of a test substance adjusted with a vehicle was administered into the duodenum. One hour thereafter, BigET-1 (20 μg/kg) was administered thereto, and the blood pressure was monitored until 60 minutes after BigET-1 administration. The test was conducted at n=6 per group. In analysis, systolic blood pressure and diastolic blood pressure were determined for 20 seconds every 5 minutes from 5 minutes before BigET-1 administration to 60 minutes after BigET-1 administration, and AUC0-60 min (mmHg*min) for 60 minutes after BigET-1 administration was calculated using a delta value from the value obtained 5 minutes before BigET-1 administration. The Student's t test was used for the comparison of AUC between the vehicle administration group and the test substance administration group.

Row | Structure (SMILES) | Metabolic stability (mouse), residual rate of the unchanged form [1] [%] | IC50 (CYP2C9) [µM] | IC50 [2] [µM] | inhibition at 5 µM ([2]; at 5000 nM, read-out: ETB receptor inhibitory effect, % inhibition) [%] | Diastolic blood pressure delta AUC0-60 min [3] [mmHg*min] | Systolic blood pressure delta AUC0-60 min [3] [mmHg*min]
1 | Cc1cc2c(cc1C#Cc1ncccc1S(=O)(=O)Nc1noc(C)c1C)C(=O)OC2 [Example 4, N-(4,5-Dimethylisoxazol-3-yl)-2-((6-methyl-3-oxo-1,3-dihydroisobenzofuran-5-yl)ethynyl)pyridine-3-sulfonamide] | 91 | > 10 | > 5 | – | – | –
2 | Cc1onc(NS(=O)(=O)c2cccnc2C#Cc2cc3c(cc2Cl)COC3)c1C [Example 6, 2-((6-Chloro-1,3-dihydroisobenzofuran-5-yl)ethynyl)-N-(4,5-dimethylisoxazol-3-yl)pyridine-3-sulfonamide] | 54 | 1 to 10 | > 5 | – | – | –
3 | Cc1cc2c(cc1C#Cc1ncccc1S(=O)(=O)Nc1noc(C)c1Cl)C(C)(C)OC2 [Example 7, N-(4-Chloro-5-methylisoxazol-3-yl)-2-((3,3,6-trimethyl-1,3-dihydroisobenzofuran-5-yl)ethynyl)pyridine-3-sulfonamide] | 81 | 1 to 10 | – | 57 | – | –
4 | Cc1cc2c(cc1C#Cc1ncccc1S(=O)(=O)Nc1onc(C)c1Cl)C(C)(C)OC2 [Example 9, N-(4-Chloro-3-methylisoxazol-5-yl)-2-((3,3,6-trimethyl-1,3-dihydroisobenzofuran-5-yl)ethynyl)pyridine-3-sulfonamide] | 5 | 1 to 10 | > 5 | – | – | –

Further lines, with some results ahead:

Row | Metabolic stability (mouse), residual rate of the unchanged form [1] [%] | IC50 (CYP2C9) [µM] | IC50 [2] [µM] | inhibition at 5 µM ([2]; at 5000 nM, read-out: ETB receptor inhibitory effect, % inhibition) [%] | Structure (SMILES) | Diastolic blood pressure delta AUC0-60 min [3] [mmHg*min] | Systolic blood pressure delta AUC0-60 min [3] [mmHg*min]
5 | 85 | > 10 | > 5 | – | Cc1cc2c(cc1C#Cc1ncccc1S(=O)(=O)Nc1noc(C)c1C)C(C)(C)OC2 [Example 1, N-(4,5-Dimethylisoxazol-3-yl)-2-((3,3,6-trimethyl-1,3-dihydroisobenzofuran-5-yl)ethynyl)pyridine-3-sulfonamide] | 278 ± 539 | 83 ± 508
6 | 85 | > 10 | > 5 | – | Cc1cc2c(cc1C#Cc1ncccc1S(=O)(=O)Nc1noc(C)c1C)COC2 [Example 3, N-(4,5-Dimethylisoxazol-3-yl)-2-((6-methyl-1,3-dihydroisobenzofuran-5-yl)ethynyl)pyridine-3-sulfonamide] | 322 ± 435 | 113 ± 565
7 | 90 | > 10 | > 5 | – | Cc1onc(NS(=O)(=O)c2cccnc2C#Cc2ccc3c(c2)COC3)c1C [Example 5, 2-((1,3-Dihydroisobenzofuran-5-yl)ethynyl)-N-(4,5-dimethylisoxazol-3-yl)pyridine-3-sulfonamide] | – | –
8 | 40 | > 10 | > 5 | – | Cc1cc2c(cc1C#Cc1ncccc1S(=O)(=O)Nc1onc(C)c1C)C(C)(C)OC2 [Example 8, N-(3,4-Dimethylisoxazol-5-yl)-2-((3,3,6-trimethyl-1,3-dihydroisobenzofuran-5-yl)ethynyl)pyridine-3-sulfonamide] | – | –
9 | 68 | > 10 | > 5 | – | COc1nc(C)cnc1NS(=O)(=O)c1cccnc1C#Cc1cc2c(cc1C)COC2(C)C [Example 10, N-(3-Methoxy-5-methylpyrazin-2-yl)-2-((3,3,6-trimethyl-1,3-dihydroisobenzofuran-5-yl)ethynyl)pyridine-3-sulfonamide] | – | –
